Key:
[1] = tested on: rat aorta; experiment: Carbachol-induced relaxation of anisomycin-treated rat aorta; assay type: cell-based; details: rat aorta; anisomycin 200 μM, 1 h
Procedure: (§1) RA rings were suspended in a muscle bath and incubated with either buffer alone (Ctrl), Aniso (200 μM) for 1 h, or NiPp (500 μM) for 30 min followed by Aniso (200 μM) for 1 h. […] Proteins were extracted […] immunoblotted to examine p38MAPK phosphorylation. Quantification of relative phosphorylation to total p38MAPK level is shown. n=10, *p<0.05 in one-way ANOVA with Tukey post-test. NiPp restores endothelial dysfunction and reduced p38 MAPK phosphorylation induced by anisomycin in RA.
RA rings were suspended in a muscle bath and incubated with either buffer alone (Ctrl), Aniso (200 μM) for 1 h, or NiPp (500 μM) for 30 min followed by Aniso (200 μM) for 1 h. […] The force generated was determined and was adjusted to the weight and length of the tissue. Representative tracings from 1 out of 6 different rats are shown. […] Proteins were extracted and phosphorylation of p38 MAPK was determined by Western blot analysis. […] Data are expressed as mean±SD. […]
This produced the maximal force tension relationship as previously described. […] Contractile responses were defined by stress, calculated using force generated by tissues as follows: stress (×10^5 N/m^2)=force (g)×0.0987/area, where area=wet weight (mg)/at maximal length (mm)]/1.055.
Relaxation was calculated as percent change in stress compared to the maximal PE-induced contraction (set as 100%). […]

[2] = tested on: p38 MAPK phosphorylation; experiment: p38 MAPK phosphorylation (Western blot) in anisomycin-treated rat aorta; assay type: cell-based; details: anisomycin 200 μM, 1 h
Procedure: as §1
RA rings were suspended in a muscle bath and incubated with either buffer alone (Ctrl), Aniso (200 μM) for 1 h, or NiPp (500 μM) for 30 min followed by Aniso (200 μM) for 1 h. […] The force generated was determined and was adjusted to the weight and length of the tissue. […] Proteins were extracted and phosphorylation of p38 MAPK was determined by Western blot analysis. […] Data are expressed as mean±SD.
p38 MAPK activation with Anisomycin. […] After treatments, endothelial-dependent relaxation was determined or tissues were snap-frozen for Western blot analysis.
Western blot Analysis. […] The protein-antibody complexes were visualized and quantified using the Odyssey Infrared Imaging System. Phosphorylation was calculated as a ratio of the phosphorylated protein to total protein and was then normalized to the untreated tissues (Ctrl) with the control value set as 1.0.

Compound: COc1ccc(C[C@H]2NC[C@H](O)[C@H]2OC(C)=O)cc1 [Anisomycin, anisomycin, reference compound]
- effect of anisomycin alone on endothelial dependent relaxation [1]: impaired
- effect of anisomycin alone on phosphorylation of p38 MAPK [2]: increases
